These compounds were tested against 15-hydroxyprostaglandin dehydrogenase [NAD(+)] (Homo sapiens) (UniProt P15428) (assay: ligand-induced stabilization of human HPGD – biophysical, DSF, SYPRO orange, purified protein (AID 388)). Details: at 10 µM, buffer 10 mM HEPES, pH 7.5, NaCl 150 mM, NADH 40 µM, stronger effect = higher value.
15-hydroxyprostaglandin dehydrogenase [NAD(+)] (Homo sapiens), sequence (P15428 whole entry, looked up): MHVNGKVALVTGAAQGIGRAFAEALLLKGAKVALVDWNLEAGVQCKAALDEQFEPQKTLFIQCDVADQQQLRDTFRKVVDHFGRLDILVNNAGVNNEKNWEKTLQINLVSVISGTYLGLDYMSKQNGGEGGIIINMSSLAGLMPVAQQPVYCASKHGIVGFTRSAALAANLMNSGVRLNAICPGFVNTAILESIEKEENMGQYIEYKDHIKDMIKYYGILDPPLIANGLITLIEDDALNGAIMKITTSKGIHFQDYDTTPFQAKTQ

SMILES | Tm shift [Celsius]
CN(CCOc1ccc(CC2SC(=O)NC2=O)cc1)c1ccccn1 (stereo unspecified) | 2.5

Same assay, conditions: at 10 µM, buffer 10 mM HEPES, pH 7.5, NaCl 150 mM, stronger effect = higher value

SMILES | Tm shift [Celsius]
CCc1nnc(NS(=O)(=O)c2ccc(NC(=O)/C=C/c3ccc(F)cc3)cc2)s1 | 2.9
C[C@@]1(c2ccc(O)cc2)CC(=O)c2c(O)cc(O)cc2O1 | 2.25
Cc1c(O)cc(O)c2c1OC(c1ccc(O)c(O)c1)C(=O)C2=O (stereo unspecified) | 2.5
O=C1CC(c2ccc(O)cc2)Oc2cc(O)cc(O)c21 (stereo unspecified) | 3.1
CCc1ccc(CCOc2ccc(CC3SC(=O)CC3=O)cc2)nc1 (stereo unspecified) | 2.28
COc1cc([C@@H]2Oc3cc([C@@H]4Oc5cc(O)cc(O)c5C(=O)[C@H]4C)ccc3O[C@H]2CO)ccc1O | 2.4
O=c1c(-c2ccc(O)cc2)coc2cc(O)cc(O)c12 | 2.12
COc1ccc2c(c1)c(CC(=O)O)c(C)n2C(=O)c1ccc(Cl)cc1 | 2.1
CC1(C)[C@@H](OC(=O)CCC(=O)O)CC[C@]2(C)[C@H]3C(=O)C=C4[C@@H]5C[C@@](C)(C(=O)O)CC[C@]5(C)CC[C@@]4(C)[C@]3(C)CC[C@@H]12 | 2.35
O=c1cc(-c2ccccc2)oc2cc(O)c(O)c(O)c12 | 2.9
O=c1cc(-c2ccc(O)c(O)c2)oc2cc(O)cc(O)c12 | 2.19
O=C1NC(=O)c2c1c1c3ccccc3[nH]c1c1[nH]c3cc(Br)ccc3c21 | 2.11
CC1=CC(=O)C=C(C)C1=O | 6.05
O=C(O)c1cccnc1Nc1cccc(C(F)(F)F)c1 | 2.1
CCc1nnc(NS(=O)(=O)c2ccc(NC(=O)c3ccc(Cl)cc3Cl)cc2)s1 | 2.2
